Assay results: patent US20030228675A1, “ATM related kinase ATX, nucleic acids encoding same and methods of use” (priority 2002, published 2003)

Columns and labels:
U2OS cells [1] = test: Cell-cycle distribution by flow cytometry; type: cell-based, human; details: 24 h post-irradiation
Method: Since p53 plays a central role in activation of the G1 checkpoint, and influences S, G2, and M checkpoints as well (Giaccia and Kastan, Genes & Development 12:2973-2983 (1998); Ko and Prives, supra, 1996), a functional deficiency of ATX might alter the cell-cycle arrest responses to IR and other genotoxic agents. To test this possibility, U2OS cells were pre-treated with S or AS oligonucleotides, exposed to IR, and cell-cycle distributions at 24 h post-irradiation were determined.
The G2 checkpoint inhibitor was added to the culture medium at 8 h prior to harvest for determination of cell-cycle distributions (FIG. 3E, left panel), and immunoblotting for ATX expression (right panel).

U2OS cells [2] = test: Clonogenic survival assay of oligonucleotide-transfected cells; type: cell-based, human; details: non-irradiated, 10 days in culture
Method: To address concerns related to potential non-specific effects of ATXKI expression on cellular functions, an antisense oligonucleotide-based approach to reduce the level of ATX expression in U2OS cells was developed. The cells were mock transfected, or transfected with sense (S) or antisense (AS) oligonucleotides, and then treated for 24 h with various genotoxic agents. The cells were then trypsinized and replated, and clonogenic survival was analyzed after 10 days in culture. The results obtained with AS-treated cells were strikingly similar to those obtained with the ATXKI-expressing cells (FIGS. 2A-C). While transfection of U2OS cells with the S oligonucleotide reduced the basal level of colony outgrowth by 25%, treatment with the AS oligonucleotide decreased basal clonogenic activity by 75% (FIG. 2C, right panel). […] The reduction in ATX protein caused by AS treatment ranged from 50-90% in over 10 independent trials.
To prepare recombinant HA-tagged ATX and ATM proteins, HEK 293T cells were plated onto 60-mm dishes (9×10^5 cells per dish), and were transfected with 5 μg pcDNA3.1 (empty vector), HA-ATXWT, HA-ATXKI, or HA-ATMWT plasmid DNAS. Transfections were performed with the Fugene 6 transfection reagent (Roche), according to the manufacturer's instructions. For NMD assays (see Example 9, below), U2OS cells were seeded onto 100 mm dishes (1×10^6 cells per dish). […]
U2OS cells were seeded into 60 mm dishes (1×10^5 cells per dish) in complete medium. […] To quantitate the outgrowth of drug-resistant cells, the Coomassie Blue-bound protein was solubilized at 37° C. with 0.1 M NaOH, and the soluble material was analyzed by absorbance spectroscopy at a wavelength of 590 nm. […] Drug-resistant colonies were stained with Coomassie Blue after 10 days in culture, and the samples were analyzed with Image Pro Plus software to quantitate cell density. […]

p53 = test: Stress-induced p53 Ser-15 phosphorylation and p53 accumulation by immunoblotting; type: cell-based, human; details: U2OS treated with the drug
Method: To prepare recombinant HA-tagged ATX and ATM proteins, HEK 293T cells were plated onto 60-mm dishes (9×10^5 cells per dish), and were transfected with 5 μg pcDNA3.1 (empty vector), HA-ATXWT, HA-ATXKI, or HA-ATMWT plasmid DNAS. Transfections were performed with the Fugene 6 transfection reagent (Roche), according to the manufacturer's instructions. For NMD assays (see Example 9, below), U2OS cells were seeded onto 100 mm dishes (1×10^6 cells per dish). After 20 h, cells were transfected with 1.5 μg of pmCMV-Gl test plasmid, either Norm or 39Ter (Ishigaki et al., 2001); 1.5 μg of phCMV-MUP reference plasmid (Ishigaki et al., Cell 106:607-617 (2001)); and 7 μg of empty plasmid (pcDNA 3.1), plasmids encoding HA-ATMWT, HA-ATMKI, HA-ATXWT or HA-ATXKI. For antisense transfection experiments, U2OS cells were seeded onto 60 mm dishes (1×10^5 cells per dish) in complete medium supplemented with penicillin/streptomycin. After 30 h, cells were either mock transfected or transfected with sense (S) or antisense (AS) phosphorothioate oligonucleotides (Genset Oligos, La Jolla, Calif.). The S oligonucleotide spans ATX nucleotides 210-229 (5′-[…]-3′), and the AS oligonucleotide is complementary to this sequence (5′-[…]-3′). The cells were transfected with oligonucleotides at final concentrations of 8 μg/ml, with Fugene 6:DNA ratio of 1.6:1. Forty-eight hours after transfection, dishes were exposed to IR, UV-B, or 5-FU, and then harvested for immunoblotting, cell-cycle distribution, or cell survival assays. To examine ATX protein levels in oligonucleotide-treated cells, whole cell extracts were resolved by SDS-PAGE and immunoblotted with α-ATX Ab-1. When oligonucleotide-transfected cells were used for NMD assays, U2OS cells were seeded in culture dishes as described above. The cells were transfected using the Fugene reagent, with 1.5 μg of pmCMV-Gl test plasmid, 0.7 μg of phCMV-MUP reference plasmid, and 24 μg of S or AS oligonucleotide.
A major mediator of stress-induced signaling in mammalian cells is the tumor suppressor protein, p53 (Ko and Prives, Genes and Development 10:1054-1072, (1996); Ryan et al., Curr. Opin. Cell Biol. 13:332-337 (2001)). ATX phosphorylates p53 on Ser-15 (FIG. 1C), a site implicated in the regulation of p53 stability and transcriptional activity (Dumaz and Meek, Curr. Opin. Cell Biol. 13:225-231 (1999); Zhang and Xiong, Science 292:1910-1915 (2001)). Therefore, the possibility that these two proteins are functionally linked during cellular stress responses was investigated. U2OS cells were transiently transfected with a HA-ATXWT or HA-ATXKI expression plasmid, together with a GFP-encoding plasmid to allow for FACS-based enrichment of the transfected cells. The GFP+ cells were then examined for IR-induced stabilization of p53, as well as for specific phosphorylation of this protein on Ser-15. […] In contrast, overexpression of ATXWT enhanced both of these responses in cells exposed to IR.
The recognition of UV light-induced DNA damage occurs primarily during S phase, when pyrimidine dimers and other bulky lesions interfere with replication fork progression (Friedberg, DNA Repair and Mutagenesis (Washington, D.C., ASM Press) (1995); Lindahl and Wood, Cell 103:1121-1131 (1999)).
In order to further define the potential linkage between DNA replicational stress and ATX, the response of AS-treated cells to 5-fluorouracil (5-FU), an S-phase specific cytotoxic agent was examined (Danenberg et al., Seminars in Oncology 26:621-631 (1999); Grem, Investigational New Drugs 18:299-313 (2000)).
Changes in phosphorylation at Ser-15 are typically accompanied by alterations in the expression of the p53 protein, which complicates the interpretation of results obtained by immunoblotting of whole cell extracts with phospho-Ser-15-specific antibodies. […]

ATX [3] = target: T1, ATX (Homo sapiens, UniProt Q96Q15); test: ATX kinase activity after drug treatment of intact U2OS cells, immunoprecipitation of endogenous ATX; type: cell-based; set-up: immunoprecipitation of endogenous ATX with α-ATX Ab-2; endogenous in cells; host or cells: U2OS osteosarcoma cells; details: U2OS cells pretreated for 30 min, endogenous ATX immunoprecipitated with α-ATX Ab-2
From the text: The protein kinase activities of the mammalian PIKKs characteristically display a strong dependence on Mn2+ as a cofactor for the phosphotransferase reaction, and variable sensitivity to inhibition by wortmannin (Abraham, Genes and Development 15:2177-2196 (2001)). In our studies, the protein kinase activity of ATX was also dependent on the addition of Mn2+ the kinase reaction buffer (data not shown). […] Wortmannin is an irreversible inhibitor of PIKKs (Walker et al., Molecular Cells 6:909-919 (2000)) and can be used to assess the potency of this drug as an ATX inhibitor in intact cells. To this end, U2OS osteosarcoma cells were pretreated for 30 min with the indicated concentrations of wortmannin, followed by the preparation of cellular extracts for immunoprecipitation of endogenous ATX with α-ATX Ab-2. […]
For subcellular fractionations, U2OS cells were resuspended in cold homogenization buffer (25 mM Hepes, pH 7.4, 250 mM sucrose, 1 mM EGTA, 5 mM MgCl2, 50 mM NaF, 1 mM DTT, plus protease inhibitors) and Dounce homogenized on ice with 40 strokes in a Tefloncoated homogenizer. […] After separation by SDS-PAGE, the proteins were detected by autoradiography (for kinase reaction products) or by immunoblotting. Proteins immunoblotted with rabbit and mouse antibodies were detected with protein A-horseradish peroxidase (HRP) (Amersham), and sheep anti-mouse IgG-HRP (Amersham), respectively. […]
Target sequence in this assay (Q96Q15 whole entry): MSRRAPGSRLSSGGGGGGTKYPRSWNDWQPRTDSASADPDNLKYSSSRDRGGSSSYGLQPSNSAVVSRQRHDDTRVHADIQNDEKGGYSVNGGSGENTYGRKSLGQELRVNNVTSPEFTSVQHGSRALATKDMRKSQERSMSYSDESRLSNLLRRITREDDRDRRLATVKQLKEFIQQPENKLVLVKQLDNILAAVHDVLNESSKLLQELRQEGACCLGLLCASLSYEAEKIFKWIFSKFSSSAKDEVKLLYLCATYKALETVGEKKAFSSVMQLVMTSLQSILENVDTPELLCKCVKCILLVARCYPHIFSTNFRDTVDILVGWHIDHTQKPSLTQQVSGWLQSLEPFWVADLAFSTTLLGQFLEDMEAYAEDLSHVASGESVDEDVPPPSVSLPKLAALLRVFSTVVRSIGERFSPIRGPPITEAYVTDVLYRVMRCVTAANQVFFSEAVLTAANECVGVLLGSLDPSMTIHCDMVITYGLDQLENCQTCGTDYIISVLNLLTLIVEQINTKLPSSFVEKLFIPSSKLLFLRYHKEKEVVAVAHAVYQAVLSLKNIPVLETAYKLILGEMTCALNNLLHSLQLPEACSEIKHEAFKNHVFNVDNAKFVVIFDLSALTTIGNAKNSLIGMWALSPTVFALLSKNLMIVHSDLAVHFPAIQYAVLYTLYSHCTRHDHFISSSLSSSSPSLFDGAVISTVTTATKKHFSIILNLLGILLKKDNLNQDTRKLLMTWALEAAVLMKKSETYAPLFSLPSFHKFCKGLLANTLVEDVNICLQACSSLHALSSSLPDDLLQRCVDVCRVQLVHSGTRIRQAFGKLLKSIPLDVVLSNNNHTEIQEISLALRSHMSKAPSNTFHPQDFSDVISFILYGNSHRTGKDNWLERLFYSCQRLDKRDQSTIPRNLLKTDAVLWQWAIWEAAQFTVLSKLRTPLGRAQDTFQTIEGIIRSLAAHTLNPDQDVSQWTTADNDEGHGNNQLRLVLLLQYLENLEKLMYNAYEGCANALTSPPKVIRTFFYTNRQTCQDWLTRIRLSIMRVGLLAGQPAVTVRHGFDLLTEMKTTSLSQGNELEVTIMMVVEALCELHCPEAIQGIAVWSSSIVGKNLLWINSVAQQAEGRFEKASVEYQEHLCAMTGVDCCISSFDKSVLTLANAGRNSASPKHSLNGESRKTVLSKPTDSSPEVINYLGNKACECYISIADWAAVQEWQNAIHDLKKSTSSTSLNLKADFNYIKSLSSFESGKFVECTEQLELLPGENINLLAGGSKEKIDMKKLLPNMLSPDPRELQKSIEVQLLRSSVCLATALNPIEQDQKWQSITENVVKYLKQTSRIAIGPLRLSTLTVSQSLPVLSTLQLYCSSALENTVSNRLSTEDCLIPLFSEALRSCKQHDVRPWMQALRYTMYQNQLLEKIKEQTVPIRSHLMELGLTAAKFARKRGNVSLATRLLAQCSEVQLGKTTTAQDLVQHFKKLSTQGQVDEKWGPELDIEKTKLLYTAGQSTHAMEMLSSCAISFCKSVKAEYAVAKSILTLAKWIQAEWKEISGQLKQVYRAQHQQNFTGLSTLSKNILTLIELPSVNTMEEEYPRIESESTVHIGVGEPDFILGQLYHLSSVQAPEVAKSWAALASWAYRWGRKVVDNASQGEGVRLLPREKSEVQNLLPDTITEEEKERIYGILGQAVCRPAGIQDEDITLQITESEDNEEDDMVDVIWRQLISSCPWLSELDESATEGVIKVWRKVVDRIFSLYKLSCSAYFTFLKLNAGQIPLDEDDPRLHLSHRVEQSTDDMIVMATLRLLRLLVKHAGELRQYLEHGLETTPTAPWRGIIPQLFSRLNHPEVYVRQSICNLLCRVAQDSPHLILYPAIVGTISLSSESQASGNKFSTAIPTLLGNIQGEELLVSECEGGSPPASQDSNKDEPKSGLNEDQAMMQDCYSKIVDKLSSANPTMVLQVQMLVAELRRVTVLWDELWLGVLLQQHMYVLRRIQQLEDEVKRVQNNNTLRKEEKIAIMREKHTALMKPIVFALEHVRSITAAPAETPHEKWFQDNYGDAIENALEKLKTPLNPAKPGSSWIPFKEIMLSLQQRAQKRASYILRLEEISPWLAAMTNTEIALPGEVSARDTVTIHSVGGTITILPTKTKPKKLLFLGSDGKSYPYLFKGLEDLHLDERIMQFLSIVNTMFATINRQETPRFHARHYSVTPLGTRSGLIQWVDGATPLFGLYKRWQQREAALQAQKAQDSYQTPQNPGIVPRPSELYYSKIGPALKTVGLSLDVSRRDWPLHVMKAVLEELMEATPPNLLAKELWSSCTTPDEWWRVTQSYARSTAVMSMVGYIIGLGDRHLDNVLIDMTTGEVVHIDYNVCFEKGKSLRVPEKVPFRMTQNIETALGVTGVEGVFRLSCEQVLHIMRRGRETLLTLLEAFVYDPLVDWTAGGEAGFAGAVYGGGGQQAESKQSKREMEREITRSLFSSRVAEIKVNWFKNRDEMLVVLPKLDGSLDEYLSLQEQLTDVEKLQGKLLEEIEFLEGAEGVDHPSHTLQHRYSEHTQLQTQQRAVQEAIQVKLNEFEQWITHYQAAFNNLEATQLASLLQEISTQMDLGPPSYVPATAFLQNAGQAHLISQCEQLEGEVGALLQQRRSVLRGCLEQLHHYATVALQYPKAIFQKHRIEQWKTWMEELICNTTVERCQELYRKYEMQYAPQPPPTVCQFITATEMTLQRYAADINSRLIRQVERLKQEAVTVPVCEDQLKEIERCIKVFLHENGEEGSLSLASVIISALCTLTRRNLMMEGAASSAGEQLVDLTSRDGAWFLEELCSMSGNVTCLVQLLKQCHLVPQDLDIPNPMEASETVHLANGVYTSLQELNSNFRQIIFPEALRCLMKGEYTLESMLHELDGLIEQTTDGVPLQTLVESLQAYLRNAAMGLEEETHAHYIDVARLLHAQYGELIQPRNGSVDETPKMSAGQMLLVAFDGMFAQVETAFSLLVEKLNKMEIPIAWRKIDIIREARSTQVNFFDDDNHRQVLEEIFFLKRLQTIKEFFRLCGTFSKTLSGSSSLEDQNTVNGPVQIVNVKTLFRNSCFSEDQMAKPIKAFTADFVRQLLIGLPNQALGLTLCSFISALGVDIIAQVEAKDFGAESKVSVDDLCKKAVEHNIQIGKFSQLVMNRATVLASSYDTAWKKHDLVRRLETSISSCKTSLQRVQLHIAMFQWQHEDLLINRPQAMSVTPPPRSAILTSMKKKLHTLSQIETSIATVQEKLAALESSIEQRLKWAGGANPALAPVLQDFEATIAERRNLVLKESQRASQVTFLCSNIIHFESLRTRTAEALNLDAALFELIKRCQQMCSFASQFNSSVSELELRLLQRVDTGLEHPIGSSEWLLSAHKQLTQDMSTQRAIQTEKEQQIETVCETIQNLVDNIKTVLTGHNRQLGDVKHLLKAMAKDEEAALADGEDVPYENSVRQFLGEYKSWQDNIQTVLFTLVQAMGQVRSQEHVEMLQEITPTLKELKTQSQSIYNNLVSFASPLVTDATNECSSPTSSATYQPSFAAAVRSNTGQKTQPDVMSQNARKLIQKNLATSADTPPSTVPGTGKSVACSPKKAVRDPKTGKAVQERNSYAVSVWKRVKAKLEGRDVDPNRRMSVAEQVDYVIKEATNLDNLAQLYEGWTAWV

ATX [4] = target: T1, ATX; test: Immune complex kinase assay, immunoprecipitated HA-ATXWT pretreated with drug, GST-p53 1-70 phosphorylation; type: biochemical; set-up: was used to isolate a full-length cDNA encoding a novel member of the PIKK family, termed ATX; made in house; details: pretreatment of immunoprecipitated HA-ATXWT; GST-p53 1-70 substrate; read-out: drug concentration required for 50% inhibition (IC50) of ATX activity in vitro
Method: With the exception of the TOR proteins, the PIKK family members that bear functional catalytic domains phosphorylate substrates bearing the Ser/Thr-Gln motif (Tibbetts and Abraham, supra, 2000). […] Detergent extracts from the transfected cell populations were immunoprecipitated with α-HA antibody, and protein kinase assays were performed in buffer containing Mn2+, [γ-32P]ATP, and a GST fusion protein containing the first 70 amino acids of p53 (GST-p531-70) as the substrate (FIG. 1C). The GST-p531-70 protein was previously identified as a substrate for ATM and ATR in immune complex kinase assays (Tibbetts et al., Genes and Development 13:152-157 (1999)). […] Based on the ratios of 32P incorporation into substrate to levels of HA-tagged protein kinase, it can be estimated that the specific kinase activity of ATXWT was approximately 3.5-fold higher than that of ATMWT. As observed with ATM as the test kinase (Banin et al., Science 281:1674-1677 (1998); Canman et al., Science 281:1677-1679 (1998); Tibbetts et al., supra, 1999), phosphorylation of GST-p531-70 by ATXWT was nearly abolished by substitution of the Ser-15 residue in p53 with Ala (FIG. 1C, right panel). […] In contrast to the amino-terminal fragment, of p53, the PHAS-I/4E-BP1 protein, which is the prototypical substrate for mTOR, was poorly phosphorylated by HA-ATXWT in immune complex kinase assays (data not shown). […]

5′-GAGACAGGAGGGAGCTTGCT-3′ (all phosphorothioate, sugars by position and methylation of C not given here) [S oligonucleotide, reference compound]
cell-cycle distribution after IR exposure (U2OS cells [1]): accumulated in both G1 and G2/M phases and were cleared out of S phase | decrease of basal level of colony outgrowth (basal clonogenic activity) (U2OS cells [2]): 25%

O=c1[nH]cc(F)c(=O)[nH]1 [5-FU, 5-fluorouracil, reference compound]
Ser-15 phosphorylation of p53 (p53): not accompanied by an increase in Ser-15 phosphorylation | p53 expression (p53): increased p53 expression to levels similar to those observed in UV-irradiated cells

COC[C@H]1OC(=O)c2coc3c2[C@@]1(C)C1=C(C3=O)[C@@H]2CCC(=O)[C@@]2(C)C[C@H]1OC(C)=O [wortmannin]
IC50 (ATX [3]): 1000 to 3000 nM | IC50 (ATX [4]): 10 to 100 nM
